# Results published in ChEMBL document CHEMBL1201862, “PubChem BioAssay data set” (2004).
# The source made the active and inactive calls.
# Columns and labels:
# [1] = target: Dual specificity tyrosine-phosphorylation-regulated kinase 1A (Rattus norvegicus, UniProt Q63470); format: biochemical, Homo sapiens
# [2] = target: Long-chain-fatty-acid--AMP ligase FadD28 (Mycobacterium tuberculosis, UniProt P9WQ59); experiment: Fluorescence polarization aasay to screen for inhibitors that compete for the binding of FadD28 to a bisubstrate Measured in Biochemical System Using Plate Reader - 2147-01_Inhibitor_Dose_CherryPick_Activity.; format: functional, Mycobacterium tuberculosis H37Rv
# [3] = target: T1, DNA repair protein RAD52 homolog (Homo sapiens, UniProt P43351); format: functional, biochemical
# T1 sequence (P43351 whole entry): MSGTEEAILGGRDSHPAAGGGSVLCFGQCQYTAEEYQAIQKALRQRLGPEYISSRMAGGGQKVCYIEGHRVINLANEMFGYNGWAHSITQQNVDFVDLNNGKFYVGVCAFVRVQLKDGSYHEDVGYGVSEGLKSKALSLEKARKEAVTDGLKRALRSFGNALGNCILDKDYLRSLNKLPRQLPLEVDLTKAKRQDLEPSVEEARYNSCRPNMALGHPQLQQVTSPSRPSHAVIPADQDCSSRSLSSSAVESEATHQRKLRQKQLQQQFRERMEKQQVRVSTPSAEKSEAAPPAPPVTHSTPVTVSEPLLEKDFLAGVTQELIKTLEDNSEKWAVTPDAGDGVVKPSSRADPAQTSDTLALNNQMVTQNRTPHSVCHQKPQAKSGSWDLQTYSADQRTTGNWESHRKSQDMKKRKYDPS
# [4] = general mammalian cell viability loss – inhibitor set, cherry-pick, set 2, cytotoxicity control for miR-122 modulator project, dose response (AID 720697); format: functional, cell-based
# [5] = general mammalian cell viability loss – activator set, cherry-pick, cytotoxicity control for miR-122 modulator project, dose response (AID 720690); format: functional, cell-based;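 also: HEK293T human cells scored for general mammalian cytotoxicity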
# [6] = target: Protein Wnt-3a (Mus musculus, UniProt P27467); experiment: SAR analysis of small molecule antagonists of Gli-SUFU in a Wnt3a luminescent reporter assay.; format: functional
# [7] = decrease of insulin promoter-GFP reporter – imaging, high-content screening, mouse beta cells (AID 1628); format: functional; conditions: MIN6
# [8] = MIN6 cell viability loss – mouse insulinoma, cytotoxicity control, dose response (AID 2122); format: functional;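 also: confirmatory high-throughput counterscreen run to flag cytotoxic compounds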
# [9] = HEK-293T viability loss after treatment – luminescence, T-cell screen hits, cytotoxicity control for TCR NF-kB inhibitor project, dose response (AID 489026); format: functional, cell-based;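 also: cells exposed to compound about 14 hours before the viability readout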
# [10] = test system: INS1; experiment: INS-1E survival protection against cytokine death – cell-based, luminescence, retest, dose response (AID 449756); format: functional; conditions: Rattus norvegicus;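 also: cell death triggered by IL-1 beta plus TNF-alpha plus IFN-gamma mixture; protective hits raise ATP signal compared with cytokine alone wells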
# [11] = reduction of Shn3 3'UTR-driven luciferase in osteoblasts – cell-based, Clone20 osteoblasts, firefly luciferase, cherry-picked, dose response (AID 624132); format: functional;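 also: firefly luciferase luminescence from reporter carrying the Shn3 3'UTR in osteoblasts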
# [12] = loss of viability in HepG2 cells – cell-based, CellTiter-Glo, cherry-picked, cytotoxicity control for Shn3 inhibitor project, dose response (AID 624134); format: functional
# [13] = non-specific 3'UTR reporter inhibition in Clone20-Shn3RL – cell-based, Renilla luciferase, cherry-picked, counter-screen for Shn3 inhibitor project, dose response (AID 624133); format: functional
# [14] = target: Galanin receptor type 3 (Homo sapiens, UniProt O60755); experiment: Fluorescence-based cell-based primary high throughput dose response assay to identify antagonists of the Galanin Receptor 3 (GalR3).; format: functional
# [15] = cells; format: functional, cell-based; conditions: HEK-CNG
# [16] = target: Nuclear receptor subfamily 5 group A member 2 (Homo sapiens, UniProt O00482); format: functional, cell-based;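 also: HEK293T cells transfected with LRH-1 and a StAR promoter luciferase reporter; potency for inhibitors that lower LRH-1 driven reporter light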
# [17] = target: Steroidogenic factor 1 (Homo sapiens, UniProt Q13285); experiment: Counterscreen for inverse agonists of the liver receptor homolog-1 (LRH-1; NR5A2): Luminescence-based cell-based high throughput dose response assay to identify inverse agonists of the Steroidogenic Factor 1 Nuclear Receptor (SF1; NR5A1).; format: functional
# [18] = nonselective StAR promoter luciferase inhibitors – cell-based, luminescence, luciferase reporter, counter-screen for LRH-1 inverse agonist project, dose response (AID 651969); format: functional
# [19] = target: T2, Aminopeptidase N (Plasmodium falciparum FcB1/Columbia, UniProt O96935); experiment: malaria alanyl aminopeptidase activity blockers – biochemical, fluorogenic H-Leu-NHMec substrate, 1536-well (AID 1445); design: species or system Plasmodium falciparum 3D7, 3D7
# T2 sequence (O96935 whole entry): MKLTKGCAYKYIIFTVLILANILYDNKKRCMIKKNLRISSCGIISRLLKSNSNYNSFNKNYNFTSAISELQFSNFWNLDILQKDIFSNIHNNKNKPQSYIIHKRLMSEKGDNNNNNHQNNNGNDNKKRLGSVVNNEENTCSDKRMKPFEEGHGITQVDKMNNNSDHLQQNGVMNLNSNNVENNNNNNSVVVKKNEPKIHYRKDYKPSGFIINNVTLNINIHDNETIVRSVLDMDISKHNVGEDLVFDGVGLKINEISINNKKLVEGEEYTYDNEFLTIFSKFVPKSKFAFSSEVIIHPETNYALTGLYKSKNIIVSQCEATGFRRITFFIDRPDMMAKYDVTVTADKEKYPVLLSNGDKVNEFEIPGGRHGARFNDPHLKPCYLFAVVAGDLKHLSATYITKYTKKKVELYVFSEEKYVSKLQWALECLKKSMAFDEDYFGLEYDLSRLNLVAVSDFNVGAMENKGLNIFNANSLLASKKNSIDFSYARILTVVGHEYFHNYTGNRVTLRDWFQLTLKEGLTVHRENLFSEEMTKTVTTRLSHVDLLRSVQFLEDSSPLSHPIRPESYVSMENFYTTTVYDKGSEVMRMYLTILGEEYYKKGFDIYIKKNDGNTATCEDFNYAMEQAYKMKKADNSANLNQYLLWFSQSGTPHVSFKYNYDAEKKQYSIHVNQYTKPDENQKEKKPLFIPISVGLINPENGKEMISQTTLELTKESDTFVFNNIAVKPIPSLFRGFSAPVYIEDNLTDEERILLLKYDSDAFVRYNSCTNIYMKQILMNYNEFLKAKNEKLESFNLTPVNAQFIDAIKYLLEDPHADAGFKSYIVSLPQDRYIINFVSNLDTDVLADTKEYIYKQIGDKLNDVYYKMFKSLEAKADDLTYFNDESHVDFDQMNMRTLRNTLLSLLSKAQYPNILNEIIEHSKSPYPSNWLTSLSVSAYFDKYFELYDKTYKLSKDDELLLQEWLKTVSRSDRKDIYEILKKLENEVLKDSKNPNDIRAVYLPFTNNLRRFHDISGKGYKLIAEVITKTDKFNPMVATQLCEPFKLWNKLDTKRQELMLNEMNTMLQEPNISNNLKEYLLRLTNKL
# [20] = target: T3, Corticotropin-releasing factor receptor 2/Corticotropin-releasing factor-binding protein (Homo sapiens, UniProt P24387+Q13324); experiment: Dose Response confirmation of uHTS hits for small molecule antagonists of the CRF-binding protein and CRF-R2 receptor complex.; format: functional; conditions: read-out: IC50_Mean
# T3 sequence (Q13324 whole entry): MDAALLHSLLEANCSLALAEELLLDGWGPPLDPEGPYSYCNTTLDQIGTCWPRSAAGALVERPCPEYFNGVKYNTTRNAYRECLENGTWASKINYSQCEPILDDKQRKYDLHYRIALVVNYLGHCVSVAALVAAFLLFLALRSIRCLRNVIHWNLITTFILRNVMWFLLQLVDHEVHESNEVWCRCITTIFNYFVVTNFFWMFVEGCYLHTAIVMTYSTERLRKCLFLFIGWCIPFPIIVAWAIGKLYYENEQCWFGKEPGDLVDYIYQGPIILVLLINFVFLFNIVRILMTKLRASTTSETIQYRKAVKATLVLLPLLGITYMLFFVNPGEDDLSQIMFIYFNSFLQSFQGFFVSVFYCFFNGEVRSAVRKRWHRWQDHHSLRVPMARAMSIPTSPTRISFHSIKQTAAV
# T3 sequence (P24387 whole entry): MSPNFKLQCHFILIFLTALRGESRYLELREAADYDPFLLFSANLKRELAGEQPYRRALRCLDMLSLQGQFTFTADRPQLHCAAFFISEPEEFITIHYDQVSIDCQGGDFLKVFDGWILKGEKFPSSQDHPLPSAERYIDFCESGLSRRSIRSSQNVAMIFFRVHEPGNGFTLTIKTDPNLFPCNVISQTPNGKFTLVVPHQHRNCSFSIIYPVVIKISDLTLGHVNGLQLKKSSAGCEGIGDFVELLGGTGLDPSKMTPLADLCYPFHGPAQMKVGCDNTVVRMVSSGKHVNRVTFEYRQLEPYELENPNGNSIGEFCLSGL
# [21] = target: T3, Corticotropin-releasing factor receptor 2/Corticotropin-releasing factor-binding protein; experiment: activators of CRF receptor 2 with binding protein – uHTS hits, confirmation (AID 602473); format: functional; conditions: read-out: EC50_Mean
# [22] = blockers of CRF-binding protein–CRF-R2 complex – cell-based, uHTS hits, 384-well, dose response (AID 651639); format: functional, Homo sapiens; conditions: read-out: IC50_Mean
# [23] = target: Matrix metalloproteinase-14 (Homo sapiens, UniProt P50281); experiment: Dose Response confirmation of uHTS hits for a small molecule inhibitors of MT1-MMP activation in a fluorescence assay set 1.; format: functional
# [24] = target: Glucose-6-phosphate 1-dehydrogenase (Homo sapiens, UniProt P11413); experiment: inhibition of Homo sapiens G6PD, dose series – biochemical, fluorescence, selectivity assay for P. falciparum G6PD inhibitor project, dose response (AID 504792); format: functional
# [25] = target: Cytochrome P450 2C19 (Homo sapiens, UniProt P33261); experiment: Cytochrome panel assay with activity outcomes. Panel member name: p450-cyp2c19 Compounds with AC50 equal or less than 10 uM are considered active; format: functional; conditions: read-out: AC50
# [26] = viability loss in HeLa cells – cytotoxicity control for MgcRacGAP inhibitor project, dose response (AID 624300); format: functional
# [27] = target: T4, Rac GTPase-activating protein 1 (Homo sapiens, UniProt Q9H0H5); experiment: blockers of MgcRacGAP-driven Rac1 GTP hydrolysis – biochemical, ADP Hunter fluorescence, primary and confirmatory, confirmation (AID 624330); format: functional
# T4 sequence (Q9H0H5 whole entry): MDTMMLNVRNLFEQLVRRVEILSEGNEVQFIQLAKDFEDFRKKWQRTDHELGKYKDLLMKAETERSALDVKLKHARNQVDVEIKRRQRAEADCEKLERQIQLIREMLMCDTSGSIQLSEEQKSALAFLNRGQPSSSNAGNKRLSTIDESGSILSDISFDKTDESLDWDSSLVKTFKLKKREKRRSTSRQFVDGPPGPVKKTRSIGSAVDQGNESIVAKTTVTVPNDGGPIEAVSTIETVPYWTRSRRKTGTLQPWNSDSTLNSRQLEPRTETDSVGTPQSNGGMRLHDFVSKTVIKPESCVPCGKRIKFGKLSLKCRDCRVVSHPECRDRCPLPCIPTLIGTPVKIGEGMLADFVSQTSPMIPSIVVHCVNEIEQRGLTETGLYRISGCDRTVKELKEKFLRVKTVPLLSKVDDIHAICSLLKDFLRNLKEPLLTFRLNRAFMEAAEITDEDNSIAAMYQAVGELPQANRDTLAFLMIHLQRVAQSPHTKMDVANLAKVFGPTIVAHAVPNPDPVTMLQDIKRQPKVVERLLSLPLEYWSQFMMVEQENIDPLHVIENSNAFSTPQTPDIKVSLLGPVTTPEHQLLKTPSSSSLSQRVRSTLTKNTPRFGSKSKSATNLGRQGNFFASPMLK
# [28] = target: SWI/SNF-related matrix-associated actin-dependent regulator of chromatin subfamily A member 2 (Homo sapiens, UniProt P51531); experiment: Luminescence-based cell-based high throughput dose response assay to identify activators of the function of SWI/SNF related, matrix associated, actin dependent regulator of chromatin, subfamily a, member 2 (SMARCA2, BRM).; format: functional
# [29] = Counterscreen for activators of the function of SWI/SNF related, matrix associated, actin dependent regulator of chromatin, subfamily a, member 2 (SMARCA2, BRM): Luminescence-based cell-based high throughput dose response assay to identify non-selective compounds using the VP16 reporter assay.; format: functional
# [30] = target: Kallikrein-7 (Homo sapiens, UniProt P49862); experiment: Fluorescence Intensity-based biochemical primary high throughput dose response assay to identify activators of kallikrein-7 (K7) zymogen.
# Chain of Kallikrein-7 (P49862 whole entry): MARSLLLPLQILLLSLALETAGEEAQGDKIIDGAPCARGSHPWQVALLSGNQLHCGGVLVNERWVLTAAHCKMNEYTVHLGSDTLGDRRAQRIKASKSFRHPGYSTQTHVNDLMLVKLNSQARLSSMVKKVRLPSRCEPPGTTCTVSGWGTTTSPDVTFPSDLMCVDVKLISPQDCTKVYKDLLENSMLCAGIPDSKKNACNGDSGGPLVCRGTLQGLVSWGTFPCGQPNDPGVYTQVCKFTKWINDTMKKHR
# Chain of Protein Wnt-3a (P27467 whole entry): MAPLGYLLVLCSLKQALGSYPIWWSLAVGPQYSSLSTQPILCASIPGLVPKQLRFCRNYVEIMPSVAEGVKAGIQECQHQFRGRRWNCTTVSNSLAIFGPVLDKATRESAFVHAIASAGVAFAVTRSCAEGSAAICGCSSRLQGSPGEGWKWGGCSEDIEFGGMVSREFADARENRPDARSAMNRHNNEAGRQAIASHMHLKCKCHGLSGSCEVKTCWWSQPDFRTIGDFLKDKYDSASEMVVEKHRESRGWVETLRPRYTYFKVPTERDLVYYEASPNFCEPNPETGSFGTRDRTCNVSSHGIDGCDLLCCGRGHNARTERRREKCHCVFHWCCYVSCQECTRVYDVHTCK
# Chain of Steroidogenic factor 1 (Q13285 whole entry): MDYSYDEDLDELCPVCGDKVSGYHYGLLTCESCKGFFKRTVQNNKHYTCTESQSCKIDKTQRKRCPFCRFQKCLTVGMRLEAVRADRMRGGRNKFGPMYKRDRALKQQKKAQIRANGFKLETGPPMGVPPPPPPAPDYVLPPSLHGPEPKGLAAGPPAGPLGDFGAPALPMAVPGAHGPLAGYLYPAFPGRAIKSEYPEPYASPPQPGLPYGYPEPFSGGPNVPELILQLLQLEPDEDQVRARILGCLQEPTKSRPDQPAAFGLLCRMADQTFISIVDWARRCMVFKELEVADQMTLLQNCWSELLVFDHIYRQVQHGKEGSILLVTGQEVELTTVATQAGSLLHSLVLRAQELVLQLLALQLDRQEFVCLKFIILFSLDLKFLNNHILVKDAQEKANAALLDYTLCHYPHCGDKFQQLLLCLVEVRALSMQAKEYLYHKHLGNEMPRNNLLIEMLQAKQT
# Chain of Nuclear receptor subfamily 5 group A member 2 (O00482 whole entry): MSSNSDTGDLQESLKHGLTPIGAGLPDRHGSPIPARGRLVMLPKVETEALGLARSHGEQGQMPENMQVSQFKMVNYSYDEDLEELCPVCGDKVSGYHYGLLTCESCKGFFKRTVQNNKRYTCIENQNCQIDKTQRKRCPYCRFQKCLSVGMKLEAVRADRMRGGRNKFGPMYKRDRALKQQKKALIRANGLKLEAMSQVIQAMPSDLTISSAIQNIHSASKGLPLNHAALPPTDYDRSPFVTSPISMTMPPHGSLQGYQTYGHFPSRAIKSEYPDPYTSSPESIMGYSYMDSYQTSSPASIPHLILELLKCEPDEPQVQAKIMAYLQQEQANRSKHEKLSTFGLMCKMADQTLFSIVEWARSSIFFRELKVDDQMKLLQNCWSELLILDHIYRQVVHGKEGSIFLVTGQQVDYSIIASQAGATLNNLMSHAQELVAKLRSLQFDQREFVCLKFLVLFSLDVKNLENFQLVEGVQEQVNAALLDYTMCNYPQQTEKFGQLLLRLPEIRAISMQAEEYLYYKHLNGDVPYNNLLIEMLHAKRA
# Chain of Cytochrome P450 2C19 (P33261 whole entry): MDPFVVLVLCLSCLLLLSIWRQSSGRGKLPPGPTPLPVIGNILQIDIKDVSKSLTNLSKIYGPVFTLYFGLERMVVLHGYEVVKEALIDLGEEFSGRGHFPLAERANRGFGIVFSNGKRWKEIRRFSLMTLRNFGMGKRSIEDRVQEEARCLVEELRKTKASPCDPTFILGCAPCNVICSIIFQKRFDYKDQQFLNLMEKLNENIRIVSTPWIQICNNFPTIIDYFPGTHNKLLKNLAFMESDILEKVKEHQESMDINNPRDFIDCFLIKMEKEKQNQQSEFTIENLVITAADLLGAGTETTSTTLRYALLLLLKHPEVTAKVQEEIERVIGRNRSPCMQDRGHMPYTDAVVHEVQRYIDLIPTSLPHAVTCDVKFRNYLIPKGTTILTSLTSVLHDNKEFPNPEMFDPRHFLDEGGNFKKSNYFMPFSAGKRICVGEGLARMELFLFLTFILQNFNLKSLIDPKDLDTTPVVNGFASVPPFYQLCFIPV
# Chain of SWI/SNF-related matrix-associated actin-dependent regulator of chromatin subfamily A member 2 (P51531 whole entry): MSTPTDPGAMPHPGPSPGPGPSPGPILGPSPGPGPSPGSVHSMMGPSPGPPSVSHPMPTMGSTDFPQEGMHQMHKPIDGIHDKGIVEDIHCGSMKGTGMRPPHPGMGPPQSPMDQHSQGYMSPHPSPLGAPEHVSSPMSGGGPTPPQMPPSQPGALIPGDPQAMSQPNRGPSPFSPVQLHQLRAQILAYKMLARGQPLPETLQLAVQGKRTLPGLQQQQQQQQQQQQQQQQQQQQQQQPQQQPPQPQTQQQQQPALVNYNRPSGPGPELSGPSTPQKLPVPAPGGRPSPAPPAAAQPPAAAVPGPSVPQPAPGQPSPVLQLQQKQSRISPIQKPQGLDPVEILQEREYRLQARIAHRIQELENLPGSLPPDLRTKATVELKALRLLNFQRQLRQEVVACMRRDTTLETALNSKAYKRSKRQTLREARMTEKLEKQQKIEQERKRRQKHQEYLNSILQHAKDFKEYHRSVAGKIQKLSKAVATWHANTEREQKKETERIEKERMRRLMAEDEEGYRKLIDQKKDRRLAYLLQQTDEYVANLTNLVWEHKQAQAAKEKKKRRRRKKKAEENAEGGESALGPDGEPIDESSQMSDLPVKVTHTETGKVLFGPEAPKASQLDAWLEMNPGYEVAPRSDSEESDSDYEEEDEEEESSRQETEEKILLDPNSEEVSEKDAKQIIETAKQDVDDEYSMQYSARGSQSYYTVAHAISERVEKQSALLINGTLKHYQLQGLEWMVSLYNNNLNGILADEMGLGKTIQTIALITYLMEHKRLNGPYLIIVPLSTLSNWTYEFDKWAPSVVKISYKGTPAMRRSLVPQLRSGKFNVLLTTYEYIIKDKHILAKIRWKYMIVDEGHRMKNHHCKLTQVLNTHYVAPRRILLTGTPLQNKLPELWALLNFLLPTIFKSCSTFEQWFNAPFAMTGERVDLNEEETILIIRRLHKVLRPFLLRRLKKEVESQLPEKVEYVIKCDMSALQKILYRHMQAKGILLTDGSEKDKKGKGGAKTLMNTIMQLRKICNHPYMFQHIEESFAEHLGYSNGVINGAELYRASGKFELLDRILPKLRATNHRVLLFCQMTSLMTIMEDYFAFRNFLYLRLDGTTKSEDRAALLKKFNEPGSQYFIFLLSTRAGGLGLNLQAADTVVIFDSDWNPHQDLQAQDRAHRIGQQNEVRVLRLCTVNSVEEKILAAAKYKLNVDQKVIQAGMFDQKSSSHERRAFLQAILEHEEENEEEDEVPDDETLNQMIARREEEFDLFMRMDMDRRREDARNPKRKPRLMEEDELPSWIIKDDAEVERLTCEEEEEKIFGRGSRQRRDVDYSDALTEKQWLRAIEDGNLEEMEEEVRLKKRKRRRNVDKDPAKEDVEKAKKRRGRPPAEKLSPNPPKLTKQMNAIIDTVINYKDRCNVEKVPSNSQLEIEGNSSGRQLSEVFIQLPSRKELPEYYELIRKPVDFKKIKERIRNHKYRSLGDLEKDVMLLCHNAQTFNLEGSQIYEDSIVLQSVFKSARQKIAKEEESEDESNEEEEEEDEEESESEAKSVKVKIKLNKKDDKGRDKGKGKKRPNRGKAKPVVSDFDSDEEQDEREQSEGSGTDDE
# Chain of Long-chain-fatty-acid--AMP ligase FadD28 (P9WQ59 whole entry): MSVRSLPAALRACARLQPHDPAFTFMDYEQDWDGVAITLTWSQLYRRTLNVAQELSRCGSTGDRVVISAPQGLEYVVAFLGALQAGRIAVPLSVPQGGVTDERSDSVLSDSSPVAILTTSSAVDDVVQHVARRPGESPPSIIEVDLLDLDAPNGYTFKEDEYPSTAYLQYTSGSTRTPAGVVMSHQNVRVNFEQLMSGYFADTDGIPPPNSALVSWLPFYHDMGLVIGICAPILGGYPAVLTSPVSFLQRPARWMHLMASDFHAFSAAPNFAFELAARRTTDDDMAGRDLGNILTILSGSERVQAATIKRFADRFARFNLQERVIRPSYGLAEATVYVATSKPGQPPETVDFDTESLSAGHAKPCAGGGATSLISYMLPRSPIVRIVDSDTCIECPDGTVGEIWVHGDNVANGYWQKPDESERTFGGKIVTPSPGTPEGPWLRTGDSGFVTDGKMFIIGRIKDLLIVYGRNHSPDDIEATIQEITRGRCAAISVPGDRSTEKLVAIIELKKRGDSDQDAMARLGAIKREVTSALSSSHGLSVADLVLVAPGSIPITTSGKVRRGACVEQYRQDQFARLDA
# Chain of Galanin receptor type 3 (O60755 whole entry): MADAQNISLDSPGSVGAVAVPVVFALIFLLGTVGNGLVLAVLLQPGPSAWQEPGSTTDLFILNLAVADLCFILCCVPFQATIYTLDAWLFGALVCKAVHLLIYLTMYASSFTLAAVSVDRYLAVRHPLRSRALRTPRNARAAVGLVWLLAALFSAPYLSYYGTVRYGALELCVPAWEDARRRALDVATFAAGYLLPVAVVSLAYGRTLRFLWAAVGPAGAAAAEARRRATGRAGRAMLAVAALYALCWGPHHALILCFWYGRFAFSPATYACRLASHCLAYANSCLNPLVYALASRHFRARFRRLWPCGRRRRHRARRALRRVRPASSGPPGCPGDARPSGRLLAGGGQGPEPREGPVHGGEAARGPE
smiles,measurement,setting,value
COc1cccc(/C=N/n2c(S)nnc2C2CCCCC2)c1O,AC50,[1],6.14 µM (active)
same,AC50,[2],16.8 µM (active)
COc1ccc(-c2c(-c3ccccc3)c(C(=O)C(=O)NCCCN(C)C)n3ccc4cc(OC)c(OC)cc4c23)cc1OC,AC50,[3],3.15 µM (active)
same,AC50,[4],4.39 µM (active)
same,AC50,[5],17.2 µM (active)
COc1cc(OC)cc(C(=O)Nc2cc(N3CCCC3)ncn2)c1,IC50,[6],> 21.8 µM (inactive)
Cc1cc(C)nc(SCC(=O)Nc2ccnc3ccccc23)n1,IC50,[7],0.695 µM (active)
same,IC50,[8],0.398 µM (active)
same,IC50,[9],> 80 µM (inactive)
same,AC50,[10],4.76 µM (active)
same,AC50,[11],0.462 µM (active)
same,AC50,[12],> 70 µM (inactive)
same,AC50,[13],< 0.26 µM (active)
same,IC50,[14],0.874 µM (active)
same,EC50,[15],> 29.9 µM (inactive)
CCN(CC)c1cc(NC(=O)c2ccc(Br)o2)ncn1,IC50,[6],> 21.8 µM (inactive)
Cc1ccc(NC(=O)CN2C(=O)NC(C)(CC(C)C)C2=O)c(Br)c1 (stereo unspecified),IC50,[16],11.7 µM (inactive)
same,IC50,[17],8.09 µM (active)
same,IC50,[18],35.9 µM (inactive)
Cc1ccc(S(=O)(=O)NC2=NC(=O)/C(=C/c3ccccc3)S2)cc1,IC50,[19],69.2 µM (active)
same,IC50,[20],18.4 µM (active)
same,EC50,[21],> 53 µM (inactive)
same,IC50,[22],> 20 µM (inactive)
CNc1ccc(N=Nc2cc[n+]([O-])cc2C)cc1C,IC50,[23],> 80 µM (inactive)
COc1ccc2nc3cc(Cl)ccc3c(Nc3ccc(O)c(CN4CCN(C)CC4)c3)c2c1,IC50,[24],> 80 µM (inactive)
same,AC50,[25],2.51 µM (inconclusive)
same,AC50,[1],7.7 µM (active)
same,CC50,[26],25.6 µM (active)
same,IC50,[27],45.4 µM (active)
same,EC50,[28],> 91.1 µM (inactive)
same,EC50,[29],> 91.1 µM (inactive)
same,AC50,[3],< 0.15 µM (active)
same,EC50,[30],> 69.5 µM (inactive)
Cc1ccc(-c2nn3c(C)nnc3s2)cc1NC(=O)c1cccs1,IC50,[16],1.13 µM (active)
same,IC50,[17],0.684 µM (active)
same,IC50,[18],35.9 µM (inactive)
